Reference: US10208074B2, “Pyrazole compounds and method for making and using the compounds” (Rigel Pharmaceuticals, Inc., priority 2015, dated 2019)
pEC50: −log10 of the molar value. Counter-ions that a name gives are not always drawn. Like-named read-outs stand apart in the source and are kept apart here.

Assays:
[1] = test system: IL-23p19; test: LPS induced IL23p19 in THP-1 cells (with IFNγ primed) assay; format: cell-based, Human; conditions: THP-1 cells, IFNγ primed, LPS 1 ug/mL, 18 hours, 10 pt, read-out: IL23-p19 ELISA, THP1-IFNy, LPS, 10 pt EC50
Description: LPS Induced IL23p19 in THP-1 Cells (with IFNγ Primed) Assay
THP-1 Cells (ATCC, Cat#TIB-202), Dimethyl Sulfoxide (DMSO) (Sigma-Aldrich, Cat#D2650), RPMI 1640 (Cellgro, Cat#10-040-CM), Fetal Bovine Serum (Sigma, Cat#F4135), Albumin From Bovine Serum (BSA) (Sigma-Aldrich, Cat#A7906), LPS (Serotype K-235, Sigma, Product Number L 2143), IFNγ (Peprotech, Cat#300-02) Capture antibody: Human IL-23p19 ELISA (e-Bioscience, Cat. #14-7238-85), Detection antibody: Primary Mouse Biotinylated anti-human IL-12(p40/p70) (e-Bioscience, Cat. #13-7129-85), Secondary HRP-conjugated Streptavidin (R&D Systems, Cat#DY998), 1×PBST Washing Buffer (PBS-Tween tablet) (VWR International, Cat#80058-558), ELISA Blocking Buffer (PBS with 1% BSA), ELISA Dilution Buffer (PBS with 1% BSA), 384 Well Flat-Bottom, MaxiSorp Black Immuno Plates (Thermo Scientific, Cat#12-565-346), 384 Well Flat-Bottom, White Tissue Culture Plates (Thermo Scientific, Cat#12-565-343), Super Signal ELISA Pico Chemiluminescent Substrate (Thermo Scientific, Cat#37070), Cell Titer Glo reagent (Promega, Cat#G7573), Positive control, IKK2VI inhibitor (Calbiochem, Cat#401483), AquaMax 4000 plate washer (Molecular Devices), Luminometer, Wallac Victor2 1420 Multilabel Counter.
On day 1, 50K/well THP-1 cells were seeded and primed with IFNγ (50 ng/mL) in 384-well plates for about 18 hours in RPMI media with 10% FBS. On day 2, the compound was serially diluted in DMSO from 5 mM in 3-fold dilutions, and then diluted 1:125 in RPMI media with 10% FBS. 50 μL/well 2× compound was added to 50 μL/well THP-1 cells (with IFNγ primed) in duplicate in 384 well tissue culture plates. The cells were pre-incubated with compound for 1 hour at 37° C., 5% CO2 before addition of 10 μL/well 11×LPS to give a final concentration of 1 ug/mL LPS. Day 3, after stimulation for 18 hours at 37° C., 5% CO2, the assay plate was centrifuged and 70 μL/well supernatant was harvested. IL-23p19 protein in 70 μL/well of supernatant was measured by sandwich ELISA, and 25 μl/well Cell Titer Glo reagent was added to the remaining cells to measure compound toxicity.
Maxisorp immuno ELISA plates were pre-coated with 25 μL/well of anti-IL-23p19 capture antibody (2.5 ug/mL) in PBS overnight at room temperature. After washing with 1× PBST, the plates were blocked using 100 μL/well of 1% BSA in PBS for 2 hours at room temperature. The plates were washed three times with 1×PBST and 70 μL/well supernatant were added. The plates were incubated at room temperature for 2 hours with shaking and washed three times with 1×PBST. 25 μL/well of biotin labeled anti-IL-12(p40/p70) detection antibody (100 ng/mL) in PBS with 1% BSA was added and the plates were incubated at room temperature for 2 hours with shaking. After washing three times with 1×PBST, 25 μL/well of streptavidin-HRP (1:200) in PBS with 1% BSA was added and the plates were incubated at room temperature for 20 minutes with shaking. The plates were washed three times with 1× PBST and 25 μL/well of Super Signal ELISA Pico Chemiluminescent Substrate were added. The plates were read with a luminometer, and the chemiluminescence values were entered into Athena (Rigel) for curve fitting, EC50 calculation, and database storage.

[2] = test system: IL-23 (p19/p40); test: IL23-p19 ELISA, Dendritic, LPS (compound screening using DC cells); format: cell-based, Human; conditions: PBMC-derived DC cells, IFNγ primed, LPS 1 μg/ml, 18 hours, 10 pt, read-out: IL23-p19 ELISA, Dendritic, LPS, 10 pt, EC50
Method: Compound Screening Using DC Cells
Human PBMC cells (400 million) obtained from the vendor were transferred into a T-175 flask containing 15 ml RPMI media (10% FBS) and incubate for 2 hours at 37° C. After 2 hours, the media including floating cells was aspirated out carefully and 12 ml of fresh RPMI media (10% FBS) containing GMCSF (100 ng/ml) and IL4 (20 ng/ml) was added, and the flask was kept in a 37° C. incubator for 7 days.
After 3 days, fresh GMCSF (100 ng/ml) and IL4 (20 ng/ml) were added to the flask and the incubation continued. After 7 days, the fully differentiated cells were harvested by spinning down (1200 rpm/5 min) and aspirating the media. The cells were suspended in fresh RPMI media (10% FBS) containing 50 ng/ml IFNγ (1000 U/ml) and then plated (50K/well in 100 μl) onto a white clear bottom 96 well plate and left in a 37° C. incubator for 24 hours.
After 24 hours incubation, 100 μl of RPMI media was added containing 2× concentrated test compound per well to the above cell-culture media (final concentration becomes 1×) and the plates were pre-incubated for 1 hour at 37° C. before stimulating with LPS.
After 1 hour compound pre-incubation, 10 piper well of 20× concentrated LPS solution in RPMI media was added to give a final concentration of 1 μg/ml. The mixture was shaken and incubated the plates at 37° C. for an additional 18 hours.
155 μl of the supernatant was harvested from each well carefully (without the tip touching the bottom of the well) and to the remaining 50 μl/well of the cell culture plate was added 50 μl of Cell Titer Glo reagent. The mixture was incubated for 1-2 minutes on a shaker and the plate was read for luminescence intensity to determine the compound cytotoxicity. The cell culture supernatant collected above was used to carry out IL23 ELISA (65 μl -Supernatant) and IL10 ELISA (90 μl—Supernatant) as described below.
Human IL-23 (p19/p40) ELISA Protocol (e-Biosciences)
To 10.5 ml PBS add 50 μl of anti-IL23 (p19) was added capture antibody (2.5 μg/ml). The mixture was mixed well and 100 μl of the coating solution was added to each well of the 96 well white plates from Pierce. The wells were covered and incubated overnight at 4° C.
The anti-IL23 (p19)-antibody-coated plates were washed 2× using TBST (use plate washer) and blocked using 200 μl of 0.5% Casein for 1.5-2 hours at room temperature with shaking.
The plates were washed 2× using TBST and the supernatant was transferred (65 μl/well) to the above pre-blocked/IL23(p19)-antibody-coated 96 well plate, and incubated at room temperature for 1.5 hours with shaking.
The plates were washed 4× using TBST (plate washer) and 100 μl/well detection antibody solution prepared from 2 μl of biotin labeled anti-IL-12 (p40/p70) antibody in 11 ml 1% BSA/PBS solution (1-5000 dilution) was added. The plates were incubated for 1 hour with shaking at Room temperature.
Again, the plates were washed 4× with TBST and 100 μl of HRP labeled Streptavidin (R&D Systems) solution (10 μl/10 ml 1% BSA solution) was added, and the plates were incubated at room temperature for another 45 minutes with shaking.
After 45 minutes, the plates were washed with TBST 4× and 100 ul/well Super Signal ELISA Pico Chemiluminescent Substrate from Pierce (3.5 ml A+3.5 ml B+3.5 ml MQ water) was added. The plates were shaken for 1-2 minutes then read on a plate reader.

Row | SMILES | pEC50 ([1]; Homo sapiens, THP-1, 18 h) | pEC50 ([2]; Homo sapiens, 18 h) | also measured
1 | CCO[C@H]1C[C@@H](n2cc(NC(=O)c3csc(-c4cnn(COP(=O)(O)O)c4)n3)c(-c3ccccn3)n2)C1 [II-84, (4-(4-((1-((1,3-cis)-3-ethoxycyclobutyl)-3-(pyridin-2-yl)-1H-pyrazol-4-yl)carbamoyl)thiazol-2-yl)-1H-pyrazol-1-yl)methyl phosphate Tris salt] |  |  | pEC50 [1]: 7.07; pEC50 [2]: 6.52
2 | COCCOCCn1cc(NC(=O)c2ccc(-c3c[nH]nc3C)o2)c(-c2ccccn2)n1 [Compound I-18, N-(1-(2-(2-methoxyethoxy)ethyl)-3-(pyridin-2-yl)-1H-pyrazol-4-yl)-5-(3-methyl-1H-pyrazol-4-yl)furan-2-carboxamide] | 6.29 | 5.92 | 
3 | CC(C)(O)Cn1cc(NC(=O)c2ccc(-c3cn[nH]c3)o2)c(-c2ccccn2)n1 [Compound I-3, N-(1-(2-hydroxy-2-methylpropyl)-3-(pyridin-2-yl)-1H-pyrazol-4-yl)-5-(1H-pyrazol-4-yl)furan-2-carboxamide] | 6.37 | 6.44 | 
4 | O=C(Nc1cn([C@H]2CC[C@@H](O)CC2)nc1-c1ccccn1)c1ccc(-c2cn[nH]c2)o1 [Compound I-124, N-(1-((1s,4s)-4-hydroxycyclohexyl)-3-(pyridin-2-yl)-1H-pyrazol-4-yl)-5-(1H-pyrazol-4-yl)furan-2-carboxamide formate] | 7.27 | 6.99 | 
5 | Cc1oc(=O)oc1Cn1cc(-c2nc(C(=O)Nc3cn(C)nc3-c3ccccn3)cs2)cn1 [II-4, 2-(1-((5-methyl-2-oxo-1,3-dioxol-4-yl)methyl)-1H-pyrazol-4-yl)-N-(1-methyl-3-(pyridin-2-yl)-1H-pyrazol-4-yl)thiazole-4-carboxamide] | 7.06 | 6.51 | 
6 | O=C(Nc1cn(C2CN(C(=O)C3CC3(F)F)C2)nc1-c1ccccn1)c1ccc(-c2cn[nH]c2)o1 (centres unmarked) [Compound I-103, N-[1-{1-(2,2-difluorocyclopropane-1-carbonyl)azetidin-3-yl}-3-(pyridine-2-yl)-1H-pyrazol-4-yl]-5-(1H-pyrazol-4-yl)furan-2-carboxamide, formate salt] | 7.51 | 7.26 | 
7 | COCCn1cc(NC(=O)c2ccc(-c3cn[nH]c3)o2)c(-c2ncccn2)n1 [Compound I-7, N-(1-(2-methoxyethyl)-3-(pyrimidin-2-yl)-1H-pyrazol-4-yl)-5-(1H-pyrazol-4-yl)furan-2-carboxamide] | 6.36 | 6.40 | 
8 | CC(C)(C)OC(=O)N1CC(n2cc(NC(=O)c3ccc(-c4cn[nH]c4)o3)c(-c3ccccn3)n2)C1 [Compound I-70, tert-Butyl-3-[4-{5-(1H-pyrazole-4-yl)furan-2-carboxamido}-3-(pyridine-2-yl)-1H-pyrazol-1-yl]azetidine-1-carboxylate, formate salt] |  |  | pEC50 ([1]; formate salt): 6.44; pEC50 ([2]; formate salt): 7.55

Further lines, with some results ahead:

Row | pEC50 ([1]; Homo sapiens, THP-1, 18 h) | pEC50 ([2]; Homo sapiens, 18 h) | SMILES | also measured
9 | 6.40 | 7.21 | CCO[C@@H]1C[C@H](n2cc(NC(=O)c3csc(-c4cn[nH]c4)n3)c(-c3ccccn3)n2)C1F (stereo partly drawn) [II-155, N-(1-((cis)-3-ethoxy-2-fluorocyclobutyl)-3-(pyridin-2-yl)-1H-pyrazol-4-yl)-2-(1H-pyrazol-4-yl)thiazole-4-carboxamide] | 
10 | 7.06 | 5.16 | COc1ccc(COCC(C)(C)OC(=O)n2cc(-c3nc(C(=O)Nc4cn(C)nc4-c4ccccn4)cs3)cn2)cc1 [II-6, 1-((4-methoxybenzyl)oxy)-2-methylpropan-2-yl 4-(4-((1-methyl-3-(pyridin-2-yl)-1H-pyrazol-4-yl)carbamoyl)thiazol-2-yl)-1H-pyrazole-1-carboxylate] | 
11 | 6.40 | 6.79 | O=C(Nc1cn(CCOCC(F)F)nc1-c1ccccn1)c1coc(-c2cn[nH]c2)n1 [III-8, N-(1-(2-(2,2-difluoroethoxy)ethyl)-3-(pyridin-2-yl)-1H-pyrazol-4-yl)-2-(1H-pyrazol-4-yl)oxazole-4-carboxamide] | 
12 | 5.91 | 4.56 | CN(C)C(=O)n1cc(NC(=O)c2csc(-c3cn[nH]c3)n2)c(-c2ccccn2)n1 [II-125, N-(1-(dimethylcarbamoyl)-3-(pyridin-2-yl)-1H-pyrazol-4-yl)-2-(1H-pyrazol-4-yl)thiazole-4-carboxamide] | 
13 | 7.19 | 7.21 | O=C(Nc1cn([C@H]2CC[C@H](O)C2)nc1-c1ccccn1)c1csc(-c2cn[nH]c2)n1 (relative stereo) [II-151, N-(1-((trans)-3-hydroxycyclopentyl)-3-(pyridin-2-yl)-1H-pyrazol-4-yl)-2-(1H-pyrazol-4-yl)thiazole-4-carboxamide] | 
